# Test results: EP2181998B1, “New benzothiazinone derivative and its use as antibacterial agent” (priority 2006, dated 2007)
# Legend:
# [1] = test system: Mycobacterium smegmatis SG 987; type: cell-based; conditions: Mycolicibacterium smegmatis, SG987; read-out: MIC M. smegmatis
# [2] = test system: Mycobacterium tuberculosis H37Rv and clinical isolates 6341 and 6374; experiment: MIC and MBC, classical method, over several strains; type: cell-based
# [3] = in vivo; conditions: mouse
# [4] = test system: Mycobacterium tuberculosis clinical isolate 6374; type: cell-based
# [5] = Toxicity after per os administration; conditions: mice
# [6] = test system: Mycobacterium tuberculosis clinical isolate 6341; type: cell-based
# [7] = test system: Mycobacterium tuberculosis H37Rv; experiment: Murine TB model (experimental hematogenously disseminated tuberculosis); type: in vivo, BALB/c line mice; conditions: for Injury index: daily 6 times per week, four-score scale, liver, spleen and lungs; for Efficacy index (%): 100% - injury index of group / injury index of control x 100; for right lung Culture, without dilution CFU / spleen Culture, without dilution CFU: 42 days after inoculation of the culture medium
# [8] = test system: M. vaccae IMET 10 10670; type: cell-based
smiles,measurement,setting,value
"CC1COC2(CCN(c3nc(=O)c4cc(C(F)(F)F)cc([N+](=O)[O-])c4s3)CC2)O1 (centres unmarked) [Compound 2, 2-(2-methyl-1,4-dioxa-8-azaspiro[4.5]dec-8-yl)-8-nitro-6-(trifluoromethyl)-1,3-benzothiazin-4-one]",MIC,[1],0.00156 µg/mL
same,MBC,[2]; read-out: MBC (µg/mL) mean,0.45 µg/mL
same,MIC,[2]; read-out: MIC (µg/mL) mean,0.29 µg/mL
same,LD50,[3],> 2000 mg/kg
same,MBC,[4],0.39 µg/mL
same,MIC,[4],0.195 µg/mL
same,toxicity,[5]; doses ranging up to 2000 mg/kg,non toxic
same,animal death,"[5]; doses up to 2000 mg/kg, during 7 days of investigations",no cases of animal death
same,MBC,[6],0.39 µg/mL
same,MIC,[6],0.29 µg/mL
same,Injury index,[7]; 12 mg/kg orally,"2,1"
same,Efficacy index (%),[7]; 12 mg/kg orally,"44,7%"
same,"right lung Culture, without dilution CFU",[7]; 12 mg/kg orally,∼ 60 CFU
same,"spleen Culture, without dilution CFU",[7]; 12 mg/kg orally,∼ 60 CFU
same,Injury index,[7]; 25 mg/kg orally,"1,0"
same,Efficacy index (%),[7]; 25 mg/kg orally,78%
same,"right lung Culture, without dilution CFU",[7]; 25 mg/kg orally,∼ 35 CFU
same,"spleen Culture, without dilution CFU",[7]; 25 mg/kg orally,∼ 35 CFU
same,Survival of animals,"[7]; Group 3, 12 mg/kg oral, day of treatment 1, of 10 animals",10
same,Survival of animals,"[7]; Group 3, 12 mg/kg oral, day of treatment 2, of 10 animals",10
same,Survival of animals,"[7]; Group 3, 12 mg/kg oral, day of treatment 3, of 10 animals",10
same,Survival of animals,"[7]; Group 3, 12 mg/kg oral, day of treatment 4, of 10 animals",10
same,Survival of animals,"[7]; Group 3, 12 mg/kg oral, day of treatment 5, of 10 animals",10
same,Survival of animals,"[7]; Group 3, 12 mg/kg oral, day of treatment 6, of 10 animals",10
same,Survival of animals,"[7]; Group 3, 12 mg/kg oral, day of treatment 7, of 10 animals",10
same,Survival of animals,"[7]; Group 3, 12 mg/kg oral, day of treatment 8, of 10 animals",10
same,Survival of animals,"[7]; Group 3, 12 mg/kg oral, day of treatment 9, of 10 animals",10
same,Survival of animals,"[7]; Group 3, 12 mg/kg oral, day of treatment 10, of 10 animals",10
same,Survival of animals,"[7]; Group 3, 12 mg/kg oral, day of treatment 11, of 10 animals",10
same,Survival of animals,"[7]; Group 3, 12 mg/kg oral, day of treatment 12, of 10 animals",10
same,Survival of animals,"[7]; Group 3, 12 mg/kg oral, day of treatment 13, of 10 animals",10
same,Survival of animals,"[7]; Group 3, 12 mg/kg oral, day of treatment 14, of 10 animals",10
same,Survival of animals,"[7]; Group 3, 12 mg/kg oral, day of treatment 15, of 10 animals",10
same,Survival of animals,"[7]; Group 3, 12 mg/kg oral, day of treatment 16, of 10 animals",10
same,Survival of animals,"[7]; Group 3, 12 mg/kg oral, day of treatment 17, of 10 animals",10
same,Survival of animals,"[7]; Group 3, 12 mg/kg oral, day of treatment 18, of 10 animals",10
same,Survival of animals,"[7]; Group 3, 12 mg/kg oral, day of treatment 19, of 10 animals",10
same,Survival of animals,"[7]; Group 3, 12 mg/kg oral, day of treatment 20, of 10 animals",10
same,Survival of animals,"[7]; Group 3, 12 mg/kg oral, day of treatment 21, of 10 animals",10
same,Survival of animals,"[7]; Group 3, 12 mg/kg oral, day of treatment 22, of 10 animals",10
same,Survival of animals,"[7]; Group 3, 12 mg/kg oral, day of treatment 23, of 10 animals",10
same,Survival of animals,"[7]; Group 3, 12 mg/kg oral, day of treatment 24, of 10 animals",10
same,Survival of animals,"[7]; Group 3, 12 mg/kg oral, day of treatment 25, of 10 animals",10
same,Survival of animals,"[7]; Group 3, 12 mg/kg oral, day of treatment 26, of 10 animals",10
same,Survival of animals,"[7]; Group 3, 12 mg/kg oral, day of treatment 27",100%
same,Survival of animals,"[7]; Groups 4/5, 25 mg/kg oral, day of treatment 1, of 10 animals",10
same,Survival of animals,"[7]; Groups 4/5, 25 mg/kg oral, day of treatment 2, of 10 animals",10
same,Survival of animals,"[7]; Groups 4/5, 25 mg/kg oral, day of treatment 3, of 10 animals",10
same,Survival of animals,"[7]; Groups 4/5, 25 mg/kg oral, day of treatment 4, of 10 animals",10
same,Survival of animals,"[7]; Groups 4/5, 25 mg/kg oral, day of treatment 5, of 10 animals",10
same,Survival of animals,"[7]; Groups 4/5, 25 mg/kg oral, day of treatment 6, of 10 animals",10
same,Survival of animals,"[7]; Groups 4/5, 25 mg/kg oral, day of treatment 7, of 10 animals",10
same,Survival of animals,"[7]; Groups 4/5, 25 mg/kg oral, day of treatment 8, of 10 animals",10
same,Survival of animals,"[7]; Groups 4/5, 25 mg/kg oral, day of treatment 9, of 10 animals",10
same,Survival of animals,"[7]; Groups 4/5, 25 mg/kg oral, day of treatment 10, of 10 animals",10
same,Survival of animals,"[7]; Groups 4/5, 25 mg/kg oral, day of treatment 11, of 10 animals",10
same,Survival of animals,"[7]; Groups 4/5, 25 mg/kg oral, day of treatment 12, of 10 animals",10
same,Survival of animals,"[7]; Groups 4/5, 25 mg/kg oral, day of treatment 13, of 10 animals",10
same,Survival of animals,"[7]; Groups 4/5, 25 mg/kg oral, day of treatment 14, of 10 animals",10
same,Survival of animals,"[7]; Groups 4/5, 25 mg/kg oral, day of treatment 15, of 10 animals",10
same,Survival of animals,"[7]; Groups 4/5, 25 mg/kg oral, day of treatment 16, of 10 animals",10
same,Survival of animals,"[7]; Groups 4/5, 25 mg/kg oral, day of treatment 17, of 10 animals",10
same,Survival of animals,"[7]; Groups 4/5, 25 mg/kg oral, day of treatment 18, of 10 animals",10
same,Survival of animals,"[7]; Groups 4/5, 25 mg/kg oral, day of treatment 19, of 10 animals",10
same,Survival of animals,"[7]; Groups 4/5, 25 mg/kg oral, day of treatment 20, of 10 animals",10
same,Survival of animals,"[7]; Groups 4/5, 25 mg/kg oral, day of treatment 21, of 10 animals",10
same,Survival of animals,"[7]; Groups 4/5, 25 mg/kg oral, day of treatment 22, of 10 animals",10
same,Survival of animals,"[7]; Groups 4/5, 25 mg/kg oral, day of treatment 23, of 10 animals",10
same,Survival of animals,"[7]; Groups 4/5, 25 mg/kg oral, day of treatment 24, of 10 animals",10
same,Survival of animals,"[7]; Groups 4/5, 25 mg/kg oral, day of treatment 25, of 10 animals",10
same,Survival of animals,"[7]; Groups 4/5, 25 mg/kg oral, day of treatment 26, of 10 animals",10
same,Survival of animals,"[7]; Groups 4/5, 25 mg/kg oral, day of treatment 27",100%
same,mice survived,"[7]; murine model of tuberculosis infection, all control animals died until day 33",100%
same,MIC M.vaccae,[8],"0,76pg/ml"
